The results in this text go back to US20190365927A1, “COMPOSITION FOR PHOTODYNAMIC THERAPY USING GENE EXPRESSING FLUORESCENT PROTEIN AND PHOTOSENSITIZER, AND PHOTODYNAMIC THERAPY METHOD USING SAME” (priority 2017, published 2019).

The test system of assay [1] is eGFP+ and eGFP− H460 and B16F10 tumors. Kind of assay: Tumor-transplanted animal test (cFRET PDT). Format: in vivo, mice. Here is the method: B 16F10 and GFP-B16-F0 Melanoma cells were harvested using a cell lifter and were resuspended in serum-free DMEM. Approximately 2×10^6/100 μL of B16F10 and GFP-B16-F0 melanoma cells were subcutaneously injected into both sides of female C57BL/6 mice. After 10 to 15 days, mice were divided into 4 groups based on the mean tumor diameter when the mean tumor diameter reached a minimum of 0.3 cm. The mice were then randomly divided into 4 groups (n=5 per group). Control animals received 0.9% saline instead of chemical substance.
In the experimental group, RB ([…], 53 nM/mL) was intravenously administered thereto twice a week, and blue light (2 min) was irradiated to the tumor site in 4 hours after the injection. The mouse body weight and tumor volume were measured twice a week. Three weeks later, the mice were euthanized. Tumors were removed therefrom and fixed to 10% neutral buffered formalin. The next day, the image was captured. Similar experiments were performed on GFP+ and GFP-H460 cells. About 2×10^6/100 μL of cells were injected subcutaneously into both sides thereof.

Assay [2] concerns GFP+ A549, RFP+ A549 and YFP+ A549 cells. Kind of assay: In vitro PDT of GFP+, RFP+ and YFP+ cells with photosensitizer, MTT analysis. Format: cell-based, human. The note with it: 1 μM, blue laser light (488 nm), FIG. 20. How it is done:
Photo inducing death of GFP+, RFP+, and YFP+ cells via the photosensitizer was measured by MTT analysis. The specific experimental procedure is as follows.
To investigate photo inducing death of GFP+ cells, RFP+ cells, and YFP+ cells via the photosensitizer, rose bengal, hematoporphyrin (Sigma-aldrich #5518) or 5-ALA (5-Aminolevulinic acid hydrochloric, Sigma-aldrich # A3785) was diluted with RPMI medium containing 10% FBS. 1 μM concentration of rose bengal, hematoporphyrin or 5-ALA was prepared. Further, GFP+ A549 cells, RFP+ A549 cells and YFP+ A549 cells selected from the 1-4 were pre-incubated at a density of 5×10^3 cells per well on 96-well, black, and clear bottom plates. A549 cells with pcDNA 3.1 vector injected thereto were cultured as control. Then, each of the photosensitizers as produced was applied or not applied to the preincubated cells in the preincubated cells which in turn were cultured for 4 hours. After 4 hours, the cells were washed three times with PBS buffer. Irradiation or non-irradiation of blue laser light (488 nm; radiation dose rate=2 J/cm^2) or yellow laser light (570 nm; radiation dose rate=2 J/cm^2) thereto was carried out for 5 seconds. After irradiation or non-irradiation, a fresh culture medium was added to the wells. The cells were cultured again for 24 hours. MTT analysis was then performed.

With `O=C1OC2(c3cc(I)c(O)c(I)c3Oc3c2cc(I)c(O)c3I)c2c(Cl)c(Cl)c(Cl)c(Cl)c21` [RB, rose bengal], the tumor growth result in assay [1] (GFP+ B16F10 cells in mouse, 473 nm laser light, FIG. 3D, 3E) is “remarkable tumor inhibiting effect”. Further, the “eGFP+ cells removed in grafted tumor” value in assay [1] (mixture of eGFP+ and eGFP− sublines of H460 and B16F10 grafted to mouse, after second round of 473 nm irradiation, FIG. 3B, 3C) is reported as about 80%. Further, in assay [2], the “cell death effect, YFP+ versus GFP+ cell” value was “the cell death effect of the YFP+ cell is higher than that of GFP+ cell”.
